Where a SMILES comes first, the peptide text is derived from it. [ ]: non-standard residue; d: D form.
Key:
SH-SY5Y cells = test: Toxicity of peptides on differentiated SH-SY5Y cells (MTT test); type: cell-based, human; conditions: 24 h; for toxicity for living cells: up to 20 μM, mean of three independent assays
Procedure: Figure 2 Analysis of the effects of Aβ1-6WT(D), Aβ1-6A2V(D) and Aβ1-6A2VTAT(D) on neurotoxicity in cell models. SH-SY5Y cells were differentiated with 10 μM retinoic acid. […] Comparison of cell viability was performed by Student t-test.
Toxicity studies with Aβ1-6WT(D), Aβ1-6A2V(D) or Aβ1-6A2VTAT(D) and the short peptides’ ability to inhibit the toxicity induced by Aβ1-42WT in SH-SY5Y cell cultures were analyzed following previously described protocols. Each experiment was performed in triplicate; the data provided were obtained as the mean of three independent assays.

[1] = Crossing of blood brain barrier and cell membranes (data not shown); conditions: peptide alone
amyloid plaques = test: Binding of biotinylated peptides to amyloid in CRND8 mouse brain sections; conditions: for staining of amyloid plaques in transgenic mouse brain: CRND8 transgenic brain sections, avidin-biotin complex / DAB
Procedure: It was tested on brain sections of transgenic and control mice of CRND8 strain[44]. To unequivocally identify the fragment(s) of the peptide responsible for binding to plaques we used three separate segments: Biot-Aβ1-6WT(D), Biot-Aβ1-6A2V(D) and Biot-TAT(D). Seven-micrometre thick brain sections fixed in Carnoy and embedded in paraffin were used for staining.

Aβ1-42WT = target: T1, Aβ1-42WT (Homo sapiens, UniProt P05067); test: Atomic force microscopy of Aβ1-42WT oligomerization; type: biochemical; conditions: Aβ1-42WT alone, 100 μM, phosphate buffer 50 mM pH 7.4, 4 °C, 24 h, AFM
T1 construct: Aβ1-42WT oligomers were formed following incubation of Aβ1-42WT at a final concentration of 100 μM; made in house; host or cells: chemical synthesis (solid-phase Fmoc), no expression host
T1 sequence (P05067 672-713 limits assumed): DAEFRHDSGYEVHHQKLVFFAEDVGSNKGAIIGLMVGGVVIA
Procedure: In polarized-light and EM studies, both peptides were used at 0.125 mM, molar ratio = 1:1 or 1:4 respectively, with 20 days incubation. […] E,F: Representative Tapping mode of AFM images as determined by amplitude error data of Aβ1-42WT oligomers. Aβ1-42WT peptide 100 μM in phosphate buffer 50 mM, pH 7.4 was incubated at 4 °C for 24 h alone (E) (Z range: -10/ + 10 mV) or in presence of Aβ1-6A2VTAT(D) (F) (Z range: -10/ + 25 mV). The molar ratio of Aβ1-42WT to Aβ1-6A2VTAT(D) was 1:4. Scale bar: 1 μm, inset: 200 nm. (G,H): height plot profiles obtained along different lines traced on the topographic AFM images.
Aβ1-42WT oligomers were formed following incubation of Aβ1-42WT at a final concentration of 100 μM in phosphate buffer 50 mM, pH 7.4 at 4 °C for 24 h, alone or in presence of Aβ1-6A2VTAT(D), at 1:4 molar ratio. Sample solutions were diluted to a final concentration of 10 μM of Aβ1-42WT with phosphate buffer and 50 μl of each solution was immediately added onto freshly cleaved mica at room temperature for 2 minutes. Samples were washed and dried under gentle nitrogen flow. AFM analyses were carried out on a Multimode AFM with a Nanoscope V system (Veeco/Digital Instruments). AFM images were analysed using the Scanning Probe Image Processor data analysis package. All the topographic patterns and SPIP characterization were verified via additional measurements on a minimum of five different, well separated areas.

APP = conditions: enhanced β-secretase cleavage of APP, increased C99; cited from earlier work
Excerpt: This is consistent with our findings, indicating a shift in APP processing towards the amyloidogenic processing i ...

Molecule: CC(C)[C@@H](NC(=O)[C@H](N)CC(=O)O)C(=O)N[C@H](CCC(=O)O)C(=O)N[C@H](Cc1ccccc1)C(=O)N[C@H](CCCNC(=N)N)C(=O)N[C@H](Cc1c[nH]cn1)C(=O)O [Aβ1-6A2V(D)] (H-[dD][dV][dE][dF][dR][dH]-OH)
- toxicity for living cells (SH-SY5Y cells): neither is toxic for living cells even at high concentrations
- crossing of blood brain barrier and cell membranes [1]: does not efficiently cross either the blood brain barrier (BBB) or cell membranes

Molecule: C[C@@H](NC(=O)[C@H](N)CC(=O)O)C(=O)N[C@H](CCC(=O)O)C(=O)N[C@H](Cc1ccccc1)C(=O)N[C@H](CCCNC(=N)N)C(=O)N[C@H](Cc1c[nH]cn1)C(=O)O [Aβ1-6WT(D)] (H-[dD][dA][dE][dF][dR][dH]-OH)
- toxicity for living cells (SH-SY5Y cells): neither is toxic for living cells even at high concentrations

Molecule: Gly-Arg-Lys-Lys-Arg-Arg-Gln-Arg-Arg-Arg [Biot-TAT(D), biotinylated form of TAT(D), reference compound]
- staining of amyloid plaques in transgenic mouse brain (amyloid plaques): strongly stained amyloid deposits

Molecule: H-Asp-ALA/VAL-Glu-Phe-Arg-His-Asp-Ser-Gly-Tyr-Glu-Val-His-His-Gln-Lys-Val-Phe-Phe-Ala-Glu-Asp-Val-Gly-Ala-Ile-Ile-Gly-Leu-Met-Val-Gly-Gly-Val-Val—OH [Aβ1-42WT, synthetic wild-type full-length Amyloid-β 1-42, reference compound]
- diameter of small oligomers (~70%) (Aβ1-42WT): 6-20 nm
- reduction of cell viability (SH-SY5Y cells): 35%

Molecule: H-Asp-ALA/VAL-Glu-Phe-Arg-His-Gly-Gly-Gly-Gly-Gly-Arg-Lys-Lys-Arg-Arg-Gln-Arg-Arg-Arg [Biot-Aβ1-6WTTAT(D), Aβ1-6WTTAT(D) containing a biotinylated residue at the C-terminus]
- staining of amyloid plaques in transgenic mouse brain (amyloid plaques): able to bind and therefore stain the plaques
- staining in brain slices of non-transgenic control mice (amyloid plaques; control animals devoid of amyloid plaques, data not shown): unable to produce any staining

Molecule: H-Asp-ALA/VAL-Glu-Phe-Arg-His-OH [Biot-Aβ1-6A2V(D), Aβ1-6A2V(D) containing a biotinylated residue at the C-terminus]
- staining of amyloid plaques in transgenic mouse brain (amyloid plaques): no immunostaining of amyloid was detected

B1: TAT: HIV-1 Tat of the cited studies (protein, UniProt P04608 1-86, looked up)
Protein Tat: MEPVDPRLEPWKHPGSQPKTACTNCYCKKCCFHCQVCFITKALGISYGRKKRRQRRRAHQNSQTHQASLSKQPTSQPRGDPTGPKE
- fold higher levels of Aβ42 (APP): 5.5 fold

— PMC4750079, “Tackling amyloidogenesis in Alzheimer’s disease with A2V variants of Amyloid-β” (Scientific Reports, 2016)
